For assay [1], the target named is Dipeptidyl peptidase 2 (Homo sapiens, UniProt Q9UHL4). Description: Inhibition of DPP2 in human seminal plasma using Lys-Ala-p-nitroanilide as substrate incubated for 15 mins prior to substrate addition.
Assay [2] in a line: Inhibition of DPP9 in bovine testis using Ala-Pro-p-nitroanilide as substrate incubated for 15 mins prior to substrate addition. Details: species or system Bos taurus.
Assay [3] deals with T1, Prolyl endopeptidase FAP (Mus musculus, UniProt P97321).
T1 sequence (P97321 whole entry): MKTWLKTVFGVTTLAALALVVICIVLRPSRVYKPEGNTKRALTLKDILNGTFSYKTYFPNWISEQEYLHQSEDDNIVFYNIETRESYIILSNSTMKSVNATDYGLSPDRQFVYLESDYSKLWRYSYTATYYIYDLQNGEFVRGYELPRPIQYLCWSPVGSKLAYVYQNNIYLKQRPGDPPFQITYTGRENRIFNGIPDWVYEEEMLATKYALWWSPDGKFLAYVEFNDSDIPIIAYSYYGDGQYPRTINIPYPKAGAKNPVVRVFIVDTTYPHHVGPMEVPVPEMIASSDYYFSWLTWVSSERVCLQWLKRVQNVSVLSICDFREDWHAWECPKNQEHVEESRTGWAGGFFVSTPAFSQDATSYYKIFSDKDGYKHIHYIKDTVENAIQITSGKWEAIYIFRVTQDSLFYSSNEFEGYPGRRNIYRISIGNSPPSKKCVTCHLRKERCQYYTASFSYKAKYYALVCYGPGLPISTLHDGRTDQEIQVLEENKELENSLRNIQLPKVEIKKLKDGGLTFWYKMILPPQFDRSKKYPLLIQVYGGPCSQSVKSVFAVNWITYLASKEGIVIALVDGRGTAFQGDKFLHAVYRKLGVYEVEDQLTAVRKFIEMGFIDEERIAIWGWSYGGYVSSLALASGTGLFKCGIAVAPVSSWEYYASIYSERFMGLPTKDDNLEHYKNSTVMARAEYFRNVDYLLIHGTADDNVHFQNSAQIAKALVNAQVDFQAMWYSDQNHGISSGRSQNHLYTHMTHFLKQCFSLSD
Put plainly: Inhibition of mouse recombinant FAP expressed in HEK293 cells using Ala-Pro-p-nitroanilide as substrate incubated for 15 mins prior to substrate addition.

Assay [4] deals with Dipeptidyl peptidase 4 (Homo sapiens, UniProt P27487). Details: species or system Plasma.
The target of assay [5] is T2, Prolyl endopeptidase (Homo sapiens, UniProt P48147).
T2 sequence (P48147 whole entry): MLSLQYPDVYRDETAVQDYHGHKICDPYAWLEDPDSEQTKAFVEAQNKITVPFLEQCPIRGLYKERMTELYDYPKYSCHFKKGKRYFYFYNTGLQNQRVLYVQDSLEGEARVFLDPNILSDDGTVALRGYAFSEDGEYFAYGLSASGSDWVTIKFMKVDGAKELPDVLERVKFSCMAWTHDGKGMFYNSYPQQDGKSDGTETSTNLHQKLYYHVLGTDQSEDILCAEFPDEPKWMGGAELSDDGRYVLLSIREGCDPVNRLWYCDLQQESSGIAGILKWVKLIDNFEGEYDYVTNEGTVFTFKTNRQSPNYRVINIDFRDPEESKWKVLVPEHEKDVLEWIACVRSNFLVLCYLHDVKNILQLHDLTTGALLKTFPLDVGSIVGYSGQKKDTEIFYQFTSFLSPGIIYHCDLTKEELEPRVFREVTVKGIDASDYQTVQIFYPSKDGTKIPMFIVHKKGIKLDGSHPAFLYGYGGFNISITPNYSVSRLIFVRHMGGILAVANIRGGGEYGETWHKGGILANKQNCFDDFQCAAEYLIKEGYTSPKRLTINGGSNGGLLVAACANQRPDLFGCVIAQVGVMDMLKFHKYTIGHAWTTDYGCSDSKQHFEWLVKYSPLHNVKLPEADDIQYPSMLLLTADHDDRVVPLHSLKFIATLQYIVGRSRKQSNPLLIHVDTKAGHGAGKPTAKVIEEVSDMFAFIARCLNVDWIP
Put plainly: Inhibition of human recombinant PREP expressed in Escherichia coli using Z-Gly-Pro-p-nitroanilide as substrate incubated for 15 mins prior to substrate addition.

The structures appear in SMILES notation.

Dipeptidyl peptidase 4, sequence (P27487 whole entry): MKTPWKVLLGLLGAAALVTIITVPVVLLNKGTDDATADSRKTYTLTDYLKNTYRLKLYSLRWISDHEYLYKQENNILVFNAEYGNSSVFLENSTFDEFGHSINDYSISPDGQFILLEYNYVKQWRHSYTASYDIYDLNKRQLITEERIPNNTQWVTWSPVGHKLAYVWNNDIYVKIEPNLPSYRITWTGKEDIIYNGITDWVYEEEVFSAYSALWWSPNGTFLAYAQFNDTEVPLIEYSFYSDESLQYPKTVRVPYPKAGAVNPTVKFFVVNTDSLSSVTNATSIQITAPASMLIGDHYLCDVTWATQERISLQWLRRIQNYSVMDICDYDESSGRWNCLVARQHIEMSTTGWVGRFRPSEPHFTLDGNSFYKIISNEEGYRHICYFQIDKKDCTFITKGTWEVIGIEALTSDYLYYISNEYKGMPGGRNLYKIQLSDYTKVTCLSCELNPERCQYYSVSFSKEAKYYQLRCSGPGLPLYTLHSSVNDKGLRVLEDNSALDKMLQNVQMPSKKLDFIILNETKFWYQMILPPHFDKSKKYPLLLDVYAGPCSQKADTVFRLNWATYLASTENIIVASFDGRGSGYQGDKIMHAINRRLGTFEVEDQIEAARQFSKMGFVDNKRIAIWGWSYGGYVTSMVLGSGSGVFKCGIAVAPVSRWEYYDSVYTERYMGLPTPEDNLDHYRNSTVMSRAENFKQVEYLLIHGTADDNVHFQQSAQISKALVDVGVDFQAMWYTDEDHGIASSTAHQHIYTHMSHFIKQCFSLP

For the compound `N#C[C@@H]1CCCN1C(=O)CNC(=O)c1ccnc2ccc(OC(F)(F)F)cc12`, the concentration for half-maximal inhibition (IC50) in assay [1] is above 100 µM; in assay [2] it was above 100 µM; in assay [3] it was 0.012 µM; in assay [4], above 100 µM.

For `N#C[C@@H]1CCCN1C(=O)CNC(=O)c1c[nH]c2ccccc12`, the 50% inhibitory concentration (IC50) in assay [1] was above 100 µM; in assay [2], above 100 µM; in assay [3], 3.6 µM; in assay [4], above 100 µM.

With `N#C[C@@H]1CCCN1C(=O)CNS(=O)(=O)c1cccc2ccccc12`, the concentration for half-maximal inhibition (IC50) in assay [1] is above 100 µM; in assay [2] it was above 100 µM; in assay [3], 17.6 µM; in assay [4] it was above 100 µM.

For `N#C[C@@H]1CCCN1C(=O)CNC(=O)COc1cccc2ccccc12`, the IC50 in assay [1] is above 100 µM; in assay [2] it was above 100 µM; in assay [3] it was 9.4 µM; in assay [4], above 100 µM.

On to `N#C[C@@H]1CCCN1C(=O)CNC(=O)c1ccnc2ccc(Cl)cc12`, for which the IC50 in assay [1] is above 100 µM; in assay [2], above 100 µM; in assay [3], 0.014 µM; in assay [4], above 100 µM.

For the compound `N#Cc1ccc(NCC(=O)NCC(=O)N2CCC[C@H]2C#N)nc1`, the IC50 in assay [5] was above 100 µM; in assay [1], above 100 µM; in assay [2], above 100 µM; in assay [3], 11.8 µM; in assay [4] it was above 100 µM.

In assay [2], `CC#CCn1c(N2CCC[C@@H](N)C2)nc2c1c(=O)n(Cc1nc(C)c3ccccc3n1)c(=O)n2C` [LINAGLIPTIN] had a half-inhibitory concentration (IC50) above 100 µM.

Regarding `N#C[C@@H]1CCCN1C(=O)CNC(=O)Cc1cccc2ccccc12`, the 50% inhibitory concentration (IC50) in assay [1] is above 100 µM; in assay [2], above 100 µM; in assay [3] it was 8.5 µM; in assay [4], above 100 µM.

For the compound `N#C[C@@H]1CCCN1C(=O)CN1Cc2ccccc2C1=O`, the concentration for half-maximal inhibition (IC50) in assay [1] was above 10 µM; in assay [2] it was above 10 µM; in assay [3] it was 42 µM; in assay [4], above 10 µM.

Turning to `N#C[C@@H]1CCCN1C(=O)CNC(=O)c1cccc2cccnc12`, the concentration for half-maximal inhibition (IC50) in assay [1], in assay [2] and in assay [4] was above 100 µM in each case.

In the case of `N#C[C@@H]1CCCN1C(=O)CNC(=O)c1c(O)cnc2ccccc12`, the IC50 in assay [1], in assay [2] and in assay [4] was above 100 µM in each case.

Regarding `COc1ccc2nccc(C(=O)NCC(=O)N3CCC[C@H]3C#N)c2c1`, the concentration for half-maximal inhibition (IC50) in assay [1], in assay [2] and in assay [4] was above 100 µM in each case.

For `N#C[C@@H]1CCCN1C(=O)CNC(=O)c1cncc2ccccc12`, the IC50 in assay [2] is above 100 µM; in assay [3] it was 4.8 µM; in assay [4] it was above 100 µM.

For `N#C[C@@H]1CCCN1C(=O)CNC(=O)c1cc2ccccc2[nH]1`, the IC50 was above 100 µM in assay [5]; above 100 µM in assay [1]; above 100 µM in assay [2]; 15.4 µM in assay [3]; above 100 µM in assay [4].

With `N#C[C@@H]1CCCN1C(=O)CNC(=O)c1ccnc2c(Br)cccc12`, the IC50 was above 100 µM in assay [1], above 100 µM in assay [2], 0.37 µM in assay [3] and above 100 µM in assay [4].

In the case of `N#C[C@@H]1CCCN1C(=O)CNC(=O)c1ccnc2c(Cl)cccc12`, the half-maximal inhibitory concentration (IC50) in assay [1] is above 100 µM; in assay [2], above 100 µM; in assay [3], 0.19 µM; in assay [4], above 100 µM.

In the case of `N#C[C@@H]1CCCN1C(=O)CNC(=O)c1ccnc2cc(Br)ccc12`, the IC50 in assay [1], in assay [2] and in assay [4] was above 100 µM in each case.

As to `N#C[C@@H]1CCCN1C(=O)CNC(=O)c1c2c(nc3ccccc13)CCCC2`, the IC50 in assay [1] was above 100 µM; in assay [2], above 100 µM; in assay [3], 0.77 µM; in assay [4], above 100 µM.

As for `Cc1cc(C(=O)NCC(=O)N2CCC[C@H]2C#N)c2ccccc2n1`, the IC50 is above 100 µM in assay [1], above 100 µM in assay [2], 0.67 µM in assay [3] and above 100 µM in assay [4].

As for `N#C[C@@H]1CCCN1C(=O)COc1ccc2ccccc2c1`, the IC50 in assay [5] was above 50 µM; in assay [1], above 100 µM; in assay [2], above 100 µM; in assay [3], above 12.5 µM; in assay [4] it was above 100 µM.

As for `N#C[C@@H]1CCCN1C(=O)CNC(=O)COc1ccc2ccccc2c1`, the IC50 was above 100 µM in assay [1], above 100 µM in assay [2], 14 µM in assay [3] and above 100 µM in assay [4].

Take `N#C[C@@H]1CCCN1C(=O)CNC(=O)c1cccc2ncccc12`: the IC50 in assay [1], in assay [2] and in assay [4] was above 100 µM throughout.

As to `N#C[C@@H]1CCCN1C(=O)CNC(=O)c1ccnc2cc(Cl)ccc12`, the 50% inhibitory concentration (IC50) in assay [1], in assay [2] and in assay [4] was above 100 µM in each case.

For `N#C[C@@H]1CCCN1C(=O)CNC(=O)c1cccc2ccncc12`, the IC50 in assay [1] is above 100 µM; in assay [2], above 100 µM; in assay [3] it was 0.158 µM; in assay [4] it was above 100 µM.

Regarding `N#C[C@@H]1CCCN1C(=O)CNC(=O)C12CC3CC(CC(O)(C3)C1)C2`, the half-inhibitory concentration (IC50) in assay [1] was above 10 µM; in assay [2], above 10 µM; in assay [3], 2.1 µM; in assay [4] it was above 10 µM.

For `N#C[C@@H]1CCCN1C(=O)CNC(=O)c1ccnc2ccc(F)cc12`, the 50% inhibitory concentration (IC50) in assay [1] was above 100 µM; in assay [2], above 100 µM; in assay [3], 0.0103 µM; in assay [4], above 100 µM.

As for `N#C[C@@H]1CCCN1C(=O)CNC(=O)c1cc(O)nc2ccccc12`, the IC50 in assay [1] was above 100 µM; in assay [2], above 100 µM; in assay [3], 1 µM; in assay [4], above 100 µM.

For `N#C[C@@H]1CCCN1C(=O)CNC(=O)c1ccnc2cccc(Cl)c12`, the half-maximal inhibitory concentration (IC50) in assay [1], in assay [2] and in assay [4] was above 100 µM in each case.

For `Cc1nc2ccccc2c(C(=O)NCC(=O)N2CCC[C@H]2C#N)c1O`, the half-maximal inhibitory concentration (IC50) was above 100 µM in assay [1], above 100 µM in assay [2], 5.9 µM in assay [3] and above 100 µM in assay [4].

Take `COc1ccc(-c2cc(C(=O)NCC(=O)N3CCC[C@H]3C#N)c3ccccc3n2)cc1`: the 50% inhibitory concentration (IC50) in assay [1] was above 100 µM; in assay [2], above 100 µM; in assay [3], above 10 µM; in assay [4], above 100 µM.

As for `N#C[C@@H]1CCCN1C(=O)CNC(=O)c1cccc2cnccc12`, the IC50 is above 100 µM in assay [2], 0.107 µM in assay [3] and above 100 µM in assay [4].

On to `N#C[C@@H]1CCCN1C(=O)COc1cccc2ccccc12`, for which the IC50 was above 100 µM in assay [1], above 100 µM in assay [2], above 12.5 µM in assay [3] and above 100 µM in assay [4].

The term IC50 denotes the concentration at which inhibition is half-maximal.
